# Laboratory results reported in PMC9482650, “Quantitative fragmentomics allow affinity mapping of interactomes” (Nature Communications, 2022).
# Read-outs that look alike come from different tables or passages of the source. Ends that are not written are not given here.
# Tests used:
# Type in all cases: binding
# LNX1_4 PDZ = LNX1_4 PDZ (Homo sapiens, UniProt Q8TBB1); test: Holdup assay
# PDZD7_3 PDZ = biological target: T1, PDZD7_3 PDZ (Homo sapiens, UniProt Q9H5P4); test: Holdup assay
# T1 sequence (Q9H5P4 862-934 limits assumed): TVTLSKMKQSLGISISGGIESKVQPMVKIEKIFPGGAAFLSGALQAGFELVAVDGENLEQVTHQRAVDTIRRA
# RHPN1 PDZ = RHPN1 PDZ (Homo sapiens, UniProt Q8TCX5); test: Holdup assay
# Chain of RHPN1 PDZ (Q8TCX5 513-592 limits assumed): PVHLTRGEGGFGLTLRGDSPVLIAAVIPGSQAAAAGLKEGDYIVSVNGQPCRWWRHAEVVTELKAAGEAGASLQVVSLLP
# SNTB1 PDZ = biological target: T2, SNTB1 PDZ (Homo sapiens, UniProt Q13884); test: Holdup assay
# T2 sequence (Q13884 112-195 limits assumed): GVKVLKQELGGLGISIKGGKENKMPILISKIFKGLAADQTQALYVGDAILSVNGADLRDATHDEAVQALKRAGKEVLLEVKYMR
# SCRIB_3 PDZ = biological target: T3, SCRIB_3 PDZ (Homo sapiens, UniProt Q14160); test: Holdup assay
# T3 sequence (Q14160 1004-1093 limits assumed): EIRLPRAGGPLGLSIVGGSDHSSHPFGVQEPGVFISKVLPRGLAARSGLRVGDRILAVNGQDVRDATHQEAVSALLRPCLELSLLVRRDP
# MAGI2_3 PDZ = MAGI2_3 PDZ (Homo sapiens, UniProt Q86UL8); test: Holdup assay
# Chain of MAGI2_3 PDZ (Q86UL8 605-683 limits assumed): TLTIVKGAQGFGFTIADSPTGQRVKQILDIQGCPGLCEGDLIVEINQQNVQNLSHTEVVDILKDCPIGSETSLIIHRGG
# LRRC7 PDZ = LRRC7 PDZ (Homo sapiens, UniProt Q96NW7); test: Holdup assay
# Chain of LRRC7 PDZ (Q96NW7 1450-1535 limits assumed): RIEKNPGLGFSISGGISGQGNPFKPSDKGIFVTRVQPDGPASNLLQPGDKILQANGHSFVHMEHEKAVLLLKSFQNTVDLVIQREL
# LIN7B PDZ = biological target: T4, LIN7B PDZ (Homo sapiens, UniProt Q9HAP6); test: Holdup assay
# T4 sequence (Q9HAP6 93-175 limits assumed): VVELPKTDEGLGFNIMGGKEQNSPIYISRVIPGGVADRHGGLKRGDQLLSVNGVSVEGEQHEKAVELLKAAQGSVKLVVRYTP
# DLG4_1 PDZ = DLG4_1 PDZ (Homo sapiens, UniProt P78352); test: Holdup assay
# Chain of DLG4_1 PDZ (P78352 65-151): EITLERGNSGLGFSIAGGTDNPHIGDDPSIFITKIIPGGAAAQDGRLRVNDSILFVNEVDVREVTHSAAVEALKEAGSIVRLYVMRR
# GRIP2_2 PDZ = GRIP2_2 PDZ (Homo sapiens, UniProt Q9C0E4); test: Holdup assay
# Chain of GRIP2_2 PDZ (Q9C0E4 148-234 limits assumed): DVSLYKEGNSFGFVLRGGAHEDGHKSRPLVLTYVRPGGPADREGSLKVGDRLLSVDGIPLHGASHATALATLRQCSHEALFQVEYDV
# MAGI1_2 PDZ = MAGI1_2 PDZ (Homo sapiens, UniProt Q96QZ7); test: biochemical
# Chain of MAGI1_2 PDZ (Q96QZ7 472-554 limits assumed): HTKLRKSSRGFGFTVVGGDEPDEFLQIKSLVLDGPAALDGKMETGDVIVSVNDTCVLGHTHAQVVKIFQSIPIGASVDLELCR
# PDZD2_2 PDZ = biological target: T5, PDZD2_2 PDZ (Homo sapiens, UniProt O15018); test: Holdup assay
# T5 sequence (O15018 334-419 limits assumed): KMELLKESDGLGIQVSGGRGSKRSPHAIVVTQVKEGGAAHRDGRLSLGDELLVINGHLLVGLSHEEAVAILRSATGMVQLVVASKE
# DLG2_3 PDZ = biological target: T6, DLG2_3 PDZ (Homo sapiens, UniProt Q15700); test: Holdup assay
# T6 sequence (Q15700 421-501 limits assumed): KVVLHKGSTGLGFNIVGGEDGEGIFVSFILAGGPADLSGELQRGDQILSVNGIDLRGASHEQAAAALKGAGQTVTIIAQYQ
# DLG4_3 PDZ = DLG4_3 PDZ (Homo sapiens, UniProt P78352); test: Holdup assay
# Chain of DLG4_3 PDZ (P78352 313-393 limits assumed): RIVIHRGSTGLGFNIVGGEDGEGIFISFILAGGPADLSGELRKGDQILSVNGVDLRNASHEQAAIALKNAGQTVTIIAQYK
# DLG2_1 PDZ = DLG2_1 PDZ (Homo sapiens, UniProt Q15700); test: Holdup assay
# Chain of DLG2_1 PDZ (Q15700 98-184): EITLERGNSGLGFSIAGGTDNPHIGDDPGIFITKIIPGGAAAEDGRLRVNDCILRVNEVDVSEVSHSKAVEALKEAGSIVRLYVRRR
# MAGI3_2 PDZ = MAGI3_2 PDZ (Homo sapiens, UniProt Q5TCQ9); test: Holdup assay
# Chain of MAGI3_2 PDZ (Q5TCQ9 410-492 limits assumed): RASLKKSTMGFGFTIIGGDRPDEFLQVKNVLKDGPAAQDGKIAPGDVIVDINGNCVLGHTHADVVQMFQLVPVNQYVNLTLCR
# FRMPD2_1 PDZ = FRMPD2_1 PDZ (Homo sapiens, UniProt Q68DX3); test: Holdup assay
# Chain of FRMPD2_1 PDZ (Q68DX3 775-861 limits assumed): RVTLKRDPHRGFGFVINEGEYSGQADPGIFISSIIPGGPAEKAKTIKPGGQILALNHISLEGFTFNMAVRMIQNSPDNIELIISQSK
# PDZRN3_1 PDZ = biological target: T7, PDZRN3_1 PDZ (Homo sapiens, UniProt Q9UPQ7); test: Holdup assay
# T7 sequence (Q9UPQ7 249-339 limits assumed): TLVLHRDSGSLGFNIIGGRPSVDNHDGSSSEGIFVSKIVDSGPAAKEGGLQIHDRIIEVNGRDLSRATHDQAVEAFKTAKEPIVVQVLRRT
# GIPC1 PDZ = GIPC1 PDZ (Homo sapiens, UniProt O14908); test: Holdup assay
# Chain of GIPC1 PDZ (O14908 133-213 limits assumed): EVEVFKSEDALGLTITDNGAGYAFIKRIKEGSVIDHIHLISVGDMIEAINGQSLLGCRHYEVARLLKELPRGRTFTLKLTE
# Excerpt: Supplement 41467_2022_33018_MOESM4_ESM.xlsx, sheet "PPI_convert" | column: GIPC1
# PDZRN4_1 PDZ = biological target: T8, PDZRN4_1 PDZ (Homo sapiens, UniProt Q6ZMN7); test: Holdup assay
# T8 sequence (Q6ZMN7 224-314 limits assumed): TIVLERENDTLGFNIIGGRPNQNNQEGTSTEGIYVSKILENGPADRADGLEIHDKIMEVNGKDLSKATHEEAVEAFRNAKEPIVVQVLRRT
# CNKSR3 PDZ = CNKSR3 PDZ (Homo sapiens, UniProt Q6P9H4); test: Holdup assay
# Chain of CNKSR3 PDZ (Q6P9H4 211-293 limits assumed): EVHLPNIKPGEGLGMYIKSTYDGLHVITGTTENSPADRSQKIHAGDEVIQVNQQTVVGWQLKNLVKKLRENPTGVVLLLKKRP
# Excerpt: Supplement 41467_2022_33018_MOESM4_ESM.xlsx, sheet "PPI_convert" | column: CNKSR3
# TJP2_1 PDZ = TJP2_1 PDZ (Homo sapiens, UniProt Q9UDY2); test: Holdup assay
# Chain of TJP2_1 PDZ (Q9UDY2 33-120 limits assumed): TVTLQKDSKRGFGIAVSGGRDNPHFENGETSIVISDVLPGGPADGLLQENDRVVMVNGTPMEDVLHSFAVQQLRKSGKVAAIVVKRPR
# MAST1 PDZ = MAST1 PDZ (Homo sapiens, UniProt Q9Y2H9); test: Holdup assay
# Chain of MAST1 PDZ (Q9Y2H9 967-1055 limits assumed): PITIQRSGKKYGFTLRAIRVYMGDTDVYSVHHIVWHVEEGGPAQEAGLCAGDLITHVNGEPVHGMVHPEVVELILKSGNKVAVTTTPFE
# MAST2 PDZ = biological target: T9, MAST2 PDZ (Homo sapiens, UniProt Q6P0Q8); test: biochemical; conditions: composite holdup affinity; 0.00=below quantification threshold; read-out: COMP pKd (converted)
# T9 sequence (Q6P0Q8 1104-1192 limits assumed): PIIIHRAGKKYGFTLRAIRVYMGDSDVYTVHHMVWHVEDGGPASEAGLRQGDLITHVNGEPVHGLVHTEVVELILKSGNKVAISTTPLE
# LIN7A PDZ = LIN7A PDZ (Homo sapiens, UniProt O14910); test: Holdup assay
# Chain of LIN7A PDZ (O14910 108-190 limits assumed): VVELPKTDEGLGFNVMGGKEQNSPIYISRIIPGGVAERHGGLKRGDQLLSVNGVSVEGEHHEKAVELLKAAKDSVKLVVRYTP
# NHERF4_3 PDZ = NHERF4_3 PDZ (Homo sapiens, UniProt Q86UT5); test: Holdup assay; conditions: sheet PPI_convert; read-out: affinity to PDZ NHERF4_3 (converted)
# Chain of NHERF4_3 PDZ (Q86UT5 329-412 limits assumed): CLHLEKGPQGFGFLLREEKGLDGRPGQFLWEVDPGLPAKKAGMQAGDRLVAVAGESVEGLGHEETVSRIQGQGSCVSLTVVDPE
# DLG5_2 PDZ = DLG5_2 PDZ (Homo sapiens, UniProt Q8TDM6); test: Holdup assay; conditions: sheet PPI_convert; read-out: affinity to PDZ DLG5_2 (converted)
# Chain of DLG5_2 PDZ (Q8TDM6 705-796 limits assumed): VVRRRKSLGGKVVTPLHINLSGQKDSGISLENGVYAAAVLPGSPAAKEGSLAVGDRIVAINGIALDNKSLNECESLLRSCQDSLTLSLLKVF
# MPP3 PDZ = MPP3 PDZ (Homo sapiens, UniProt Q13368); test: Holdup assay; conditions: sheet PPI_convert; read-out: affinity to PDZ MPP3 (converted)
# Chain of MPP3 PDZ (Q13368 137-212 limits assumed): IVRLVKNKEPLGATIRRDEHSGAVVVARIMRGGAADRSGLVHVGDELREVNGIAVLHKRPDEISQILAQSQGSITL
# DFNB31_1 PDZ = DFNB31_1 PDZ (Homo sapiens, UniProt Q9P202); test: Holdup assay; conditions: composite holdup affinity; 0.00=below quantification threshold; read-out: COMP pKd (converted)
# Chain of DFNB31_1 PDZ (Q9P202 140-223 limits assumed): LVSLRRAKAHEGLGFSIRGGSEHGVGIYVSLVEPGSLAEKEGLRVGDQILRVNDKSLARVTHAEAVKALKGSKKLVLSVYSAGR
# [1] = composite holdup affinity, 0.00=below quantification threshold, read-out: COMP pKd (converted)
# Chain of LNX1_4 PDZ (Q8TBB1 638-724 limits assumed): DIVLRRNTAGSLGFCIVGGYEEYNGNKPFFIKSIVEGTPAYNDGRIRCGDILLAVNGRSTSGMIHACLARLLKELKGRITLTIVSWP
compound,measurement,setting,value
CC(C)C[C@H](NC(=O)[C@@H](N)CCCNC(=N)N)C(=O)N[C@@H](CCC(N)=O)C(=O)N[C@@H](CCCNC(=N)N)C(=O)N[C@@H](CCCNC(=N)N)C(=O)N[C@@H](CCCNC(=N)N)C(=O)N[C@@H](CCC(=O)O)C(=O)N[C@H](C(=O)N[C@@H](CCC(N)=O)C(=O)N[C@H](C(=O)O)C(C)C)[C@@H](C)O [HPV18-E6],Kd,LNX1_4 PDZ,93.3 µM
same,Kd,PDZD7_3 PDZ,105 µM
same,Kd,RHPN1 PDZ,234 µM
same,Kd,SNTB1 PDZ,5.89 µM
same,Kd,SCRIB_3 PDZ,14.5 µM
same,Kd,MAGI2_3 PDZ,70.8 µM
same,Kd,LRRC7 PDZ,724 µM
same,Kd,LIN7B PDZ,263 µM
same,Kd,DLG4_1 PDZ,7.76 µM
same,Kd,GRIP2_2 PDZ,33.1 µM
same,Kd,MAGI1_2 PDZ,1.07 µM
same,Kd,PDZD2_2 PDZ,437 µM
same,Kd,DLG2_3 PDZ,8.71 µM
same,Kd,DLG4_3 PDZ,1.82 µM
same,Kd,DLG2_1 PDZ,7.76 µM
same,Kd,MAGI3_2 PDZ,2.75 µM
same,Kd,FRMPD2_1 PDZ,79.4 µM
same,Kd,PDZRN3_1 PDZ,15.1 µM
same,Kd,GIPC1 PDZ,36.3 µM
same,Kd,PDZRN4_1 PDZ,33.1 µM
same,Kd,CNKSR3 PDZ,79.4 µM
same,Kd,TJP2_1 PDZ,129 µM
same,Kd,MAST1 PDZ,4.68 µM
same,Kd,MAST2 PDZ,16.6 µM
same,Kd,LIN7A PDZ,398 µM
SKPTRRETEV [HPV35-E6],Kd,"LNX1_4 PDZ; sheet PPI_convert, read-out: affinity to PDZ LNX1_4 (converted)",324 µM
same,Kd,PDZD7_3 PDZ; [1],50.1 µM
same,Kd,NHERF4_3 PDZ,166 µM
same,Kd,SNTB1 PDZ; [1],20.9 µM
same,Kd,SCRIB_3 PDZ; [1],12.9 µM
same,Kd,LRRC7 PDZ; [1],257 µM
same,Kd,LIN7B PDZ; [1],324 µM
same,Kd,DLG5_2 PDZ,19.1 µM
same,Kd,DLG4_1 PDZ; [1],8.13 µM
same,Kd,MAGI1_2 PDZ; [1],7.41 µM
same,Kd,PDZD2_2 PDZ; [1],166 µM
same,Kd,DLG2_3 PDZ; [1],4.9 µM
same,Kd,MPP3 PDZ,200 µM
same,Kd,DLG4_3 PDZ; [1],6.31 µM
same,Kd,"DLG2_1 PDZ; sheet PPI_convert, read-out: affinity to PDZ DLG2_1 (converted)",12.3 µM
same,Kd,MAGI3_2 PDZ; [1],4.07 µM
same,Kd,FRMPD2_1 PDZ; [1],324 µM
same,Kd,PDZRN3_1 PDZ; [1],12.9 µM
same,Kd,"GIPC1 PDZ; sheet PPI_convert, read-out: affinity to PDZ GIPC1 (converted)",20.4 µM
same,Kd,PDZRN4_1 PDZ; [1],41.7 µM
same,Kd,"CNKSR3 PDZ; sheet PPI_convert, read-out: affinity to PDZ CNKSR3 (converted)",269 µM
same,Kd,MAST2 PDZ,8.13 µM
SRRPRTETQV [HPV31-E6],Kd,PDZD7_3 PDZ; [1],195 µM
same,Kd,RHPN1 PDZ; [1],182 µM
same,Kd,SNTB1 PDZ; [1],70.8 µM
same,Kd,SCRIB_3 PDZ; [1],27.5 µM
same,Kd,MAGI2_3 PDZ; [1],79.4 µM
same,Kd,DFNB31_1 PDZ,282 µM
same,Kd,LIN7B PDZ; [1],209 µM
same,Kd,DLG4_1 PDZ; [1],9.55 µM
same,Kd,MAGI1_2 PDZ; [1],2.88 µM
same,Kd,PDZD2_2 PDZ; [1],200 µM
same,Kd,DLG2_3 PDZ; [1],7.94 µM
same,Kd,DLG4_3 PDZ; [1],7.94 µM
same,Kd,MAGI3_2 PDZ; [1],1.35 µM
same,Kd,PDZRN3_1 PDZ; [1],81.3 µM
same,Kd,PDZRN4_1 PDZ; [1],64.6 µM
same,Kd,TJP2_1 PDZ; [1],219 µM
same,Kd,MAST1 PDZ; [1],38 µM
same,Kd,MAST2 PDZ,5.89 µM
same,Kd,LIN7A PDZ; [1],309 µM
